# Key:
# [1] = target: Casein kinase II subunit alpha' (Homo sapiens) (UniProt P19784); assay: Inhibition of CSNK2A2 (unknown origin) assessed as remaining activity at 15 uM incubated for 1 hr by KINOMEscan competitive binding assay relative to control
# [2] = target: T1, Phosphatidylinositol 3-kinase C2 domain-containing subunit gamma (Homo sapiens) (UniProt O75747); assay: Inhibition of PIK3C2G (unknown origin) assessed as remaining activity at 15 uM incubated for 1 hr by KINOMEscan competitive binding assay relative to control
# T1 sequence (whole entry): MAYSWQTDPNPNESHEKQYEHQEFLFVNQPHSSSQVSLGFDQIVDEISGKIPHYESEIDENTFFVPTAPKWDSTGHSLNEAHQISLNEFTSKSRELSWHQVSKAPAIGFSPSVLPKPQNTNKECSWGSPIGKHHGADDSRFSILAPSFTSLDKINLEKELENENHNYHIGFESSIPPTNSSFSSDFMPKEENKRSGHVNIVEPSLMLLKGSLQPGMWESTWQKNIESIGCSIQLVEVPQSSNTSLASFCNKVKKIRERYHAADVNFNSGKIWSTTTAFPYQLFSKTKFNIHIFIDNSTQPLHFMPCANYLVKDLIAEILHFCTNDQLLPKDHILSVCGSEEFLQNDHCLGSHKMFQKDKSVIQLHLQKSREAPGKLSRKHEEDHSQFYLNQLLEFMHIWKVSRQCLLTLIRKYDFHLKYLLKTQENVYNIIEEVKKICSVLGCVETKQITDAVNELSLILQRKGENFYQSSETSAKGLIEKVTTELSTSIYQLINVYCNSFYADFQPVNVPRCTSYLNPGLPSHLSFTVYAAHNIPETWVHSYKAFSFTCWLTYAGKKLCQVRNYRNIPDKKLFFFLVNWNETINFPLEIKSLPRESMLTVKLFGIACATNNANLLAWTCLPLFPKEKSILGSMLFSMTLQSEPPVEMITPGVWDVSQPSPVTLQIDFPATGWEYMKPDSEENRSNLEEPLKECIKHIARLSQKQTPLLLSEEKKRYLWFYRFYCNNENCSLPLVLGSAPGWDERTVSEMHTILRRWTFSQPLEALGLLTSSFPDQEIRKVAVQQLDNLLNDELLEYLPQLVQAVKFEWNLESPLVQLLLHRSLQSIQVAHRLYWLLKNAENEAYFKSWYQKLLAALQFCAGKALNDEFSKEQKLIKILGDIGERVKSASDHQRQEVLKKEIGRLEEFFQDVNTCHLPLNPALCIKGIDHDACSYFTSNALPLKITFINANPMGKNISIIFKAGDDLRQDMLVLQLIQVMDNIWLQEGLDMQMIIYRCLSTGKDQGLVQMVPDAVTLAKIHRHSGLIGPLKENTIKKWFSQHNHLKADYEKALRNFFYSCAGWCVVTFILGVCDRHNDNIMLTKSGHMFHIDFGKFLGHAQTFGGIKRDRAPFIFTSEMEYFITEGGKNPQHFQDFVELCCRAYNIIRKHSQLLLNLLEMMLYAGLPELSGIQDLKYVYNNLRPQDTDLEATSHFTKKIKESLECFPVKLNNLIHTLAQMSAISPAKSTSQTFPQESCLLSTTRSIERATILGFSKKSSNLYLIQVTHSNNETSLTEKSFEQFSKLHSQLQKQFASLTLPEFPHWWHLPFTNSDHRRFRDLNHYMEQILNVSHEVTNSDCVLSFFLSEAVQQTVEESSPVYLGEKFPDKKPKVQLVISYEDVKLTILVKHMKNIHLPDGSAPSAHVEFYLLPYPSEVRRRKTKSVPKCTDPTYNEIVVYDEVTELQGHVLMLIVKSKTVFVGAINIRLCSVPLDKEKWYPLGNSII
# [3] = test system: Phosphatidylinositol 4,5-bisphosphate 3-kinase catalytic subunit alpha isoform (Homo sapiens), P42336 [C420R]; assay: Inhibition of PIK3CA C420R mutant (unknown origin) assessed as remaining activity at 15 uM incubated for 1 hr by KINOMEscan competitive binding assay relative to control
# [4] = test system: Phosphatidylinositol 4,5-bisphosphate 3-kinase catalytic subunit alpha isoform (Homo sapiens), P42336 [E542K]; assay: Inhibition of PIK3CA E542K mutant (unknown origin) assessed as remaining activity at 15 uM incubated for 1 hr by KINOMEscan competitive binding assay relative to control
# [5] = test system: Phosphatidylinositol 4,5-bisphosphate 3-kinase catalytic subunit alpha isoform (Homo sapiens), P42336 [E545A]; assay: Inhibition of PIK3CA E545A mutant (unknown origin) assessed as remaining activity at 15 uM incubated for 1 hr by KINOMEscan competitive binding assay relative to control
# [6] = test system: Phosphatidylinositol 4,5-bisphosphate 3-kinase catalytic subunit alpha isoform (Homo sapiens), P42336 [H1047L]; assay: Inhibition of PIK3CA H1047L mutant (unknown origin) assessed as remaining activity at 15 uM incubated for 1 hr by KINOMEscan competitive binding assay relative to control
# [7] = test system: Phosphatidylinositol 4,5-bisphosphate 3-kinase catalytic subunit alpha isoform (Homo sapiens), P42336 [H1047Y]; assay: Inhibition of PIK3CA H1047Y mutant (unknown origin) assessed as remaining activity at 15 uM incubated for 1 hr by KINOMEscan competitive binding assay relative to control
# [8] = test system: Phosphatidylinositol 4,5-bisphosphate 3-kinase catalytic subunit alpha isoform (Homo sapiens), P42336 [I800L]; assay: Inhibition of PIK3CA I800L mutant (unknown origin) assessed as remaining activity at 15 uM incubated for 1 hr by KINOMEscan competitive binding assay relative to control
# [9] = test system: Phosphatidylinositol 4,5-bisphosphate 3-kinase catalytic subunit alpha isoform (Homo sapiens), P42336 [M1043I]; assay: Inhibition of PIK3CA M1043I mutant (unknown origin) assessed as remaining activity at 15 uM incubated for 1 hr by KINOMEscan competitive binding assay relative to control
# [10] = target: Phosphatidylinositol 4,5-bisphosphate 3-kinase catalytic subunit beta isoform (Homo sapiens) (UniProt P42338); assay: Inhibition of PIK3CB (unknown origin) assessed as remaining activity at 15 uM incubated for 1 hr by KINOMEscan competitive binding assay relative to control
# [11] = target: Phosphatidylinositol 4,5-bisphosphate 3-kinase catalytic subunit gamma isoform (Homo sapiens) (UniProt P48736); assay: Inhibition of PIK3CG (unknown origin) assessed as remaining activity at 15 uM incubated for 1 hr by KINOMEscan competitive binding assay relative to control
# [12] = target: Serine/threonine-protein kinase 38-like (Homo sapiens) (UniProt Q9Y2H1); assay: Inhibition of NDR2 (unknown origin) assessed as remaining activity at 15 uM incubated for 1 hr by KINOMEscan competitive binding assay relative to control
Activity [1] [%],Activity [2] [%],Activity [3] [%],Activity [4] [%],Activity [5] [%],Activity [6] [%],Activity [7] [%],Activity [8] [%],Activity [9] [%],Activity [10] [%],Activity [11] [%],Activity [12] [%],Structure (SMILES)
100,75,94,98,100,80,98,91,77,100,95,17,CC(C)CCOc1ccc2c(=O)c(-c3ccc(O)c(O)c3)coc2c1
52,57,87,93,100,69,98,98,85,92,86,48,CC(C)CC(=O)Oc1ccc2occ(-c3ccc(O)c(O)c3)c(=O)c2c1

# Source: ChEMBL document CHEMBL5370693, “Kinases Controlling Stability of the Oncogenic MYCN Protein” (ACS Med Chem Lett, 2023)
